Assay results as given in patent US20210318335A1, “BIOMARKERS, COMPOSITIONS, AND METHODS FOR DIAGNOSING AND TREATING SUBJECTS EXPOSED TO PROTEIN/HEPARIN COMPLEXES” (DUKE UNIVERSITY, priority 2018, published 2021).

Columns and labels:
[1] = test system: complement activation by PF4/heparin complexes; assay: Antigen-C3c capture ELISA assay: complement activation by PF4/heparin in plasma; format: biochemical, human; details: for effect of chelator on complement activation by PF4/heparin: 10 mM added to healthy donor plasma prior to PF4/heparin
Method: Antigen-C3c capture ELISA assay and Specificity ELISA: Antigen-specific monoclonal antibodies (mouse anti human PF4/heparin; KKO or mouse anti-protamine/heparin; ADA at 2 μg/mL) were incubated overnight on a microtiter plate (in phosphate buffered saline, PBS) followed by washing and blocking with 1% bovine serum albumin (BSA) in PBS for 2 hours. […] Unless specified antigen concentrations were 25 μg/mL (PF4) and 0.25 U/mL (heparin) for KKO coated plates and 125 μg/mL (PRT) and 6 U/mL (heparin) for ADA coated plates. Next, plasma containing antigen fixed by complement activation fragments was added to the capture plate for 1 hr followed by serial washes. Complement-coated antigen was detected using a biotinylated anti-C3c antibody (recognizes C3 and all C3c-containing fragments of C3, including iC3b; Quidel Corporation, San Diego, Calif.) followed by colorimetric detection as previously described. […] IgM studies: Goat anti-human IgM (μ-chain specific) agarose beads were used to deplete IgM from plasma. Anti-IgM or control agarose beads were incubated with plasma and depleted plasma supernatant was analyzed in the antigen-C3c capture assay described above.

[2] = test system: B cells; assay: Flow cytometry of whole blood: binding of PF4/heparin, C3c and IgM to B cells; format: cell-based, human; details: whole blood incubated with PF4 25 μg/mL + heparin 0.25 U/mL; excess heparin wash
Method: Flow cytometry studies: Flow-based studies of antigen, complement, or IgM binding to B cells were performed as described previously (Khandelwal S, et al. (2016) Blood, 128(14):1789-1799). Patient samples were processed without addition of exogenous antigen. Cells were analyzed using a BD FACS Canto Flow cytometer (BD Biosciences, Franklin Lakes, N.J.). Signals from a minimum of 10,000 cells were acquired from each sample. Analyses were performed using FCS express software (Version 5 Flow Research Edition; De Novo Software).
To examine if IgM co-localizes with PF4/heparin antigen and complement on B cells, surface IgM on B cells before and after addition of antigen were examined.

O=C(O)CN(CCOCCOCCN(CC(=O)O)CC(=O)O)CC(=O)O [EGTA, ethylene glycol-bis (β-aminoethyl ether)-N,N,N′,N′-tetraacetic acid]
effect of chelator on complement activation by PF4/heparin [1]: eliminated complement activation

[Cl-].[Cl-].[Mg+2] [Mg^2+, Magnesium chloride]
effect of Mg2+ supplementation on complement activation by PF4/heparin ([1]; EGTA-treated plasma (10 mM EGTA), MgCl2 10 mM): did not rescue complement activation

O=C(O)CN(CCN(CC(=O)O)CC(=O)O)CC(=O)O [EDTA, ethylenediaminetetraacetic acid]
effect of chelator on complement activation by PF4/heparin [1]: eliminated complement activation

heparin
effect of excess heparin on PF4/heparin and IgM fluorescence on B cells [2]: reduced PF4/heparin and IgM fluorescence to baseline

B1: C1 esterase inhibitor: C1-inhibitor, classical pathway complement inhibitor added to plasma at 10 and 20 IU/mL (protein, UniProt P05155 23-500, looked up)
Plasma protease C1 inhibitor: NPNATSSSSQDPESLQDRGEGKVATTVISKMLFVEPILEVSSLPTTNSTTNSATKITANTTDEPTTQPTTEPTTQPTIQPTQPTTQLPTDSPTQPTTGSFCPGPVTLCSDLESHSTEAVLGDALVDFSLKLYHAFSAMKKVETNMAFSPFSIASLLTQVLLGAGENTKTNLESILSYPKDFTCVHQALKGFTTKGVTSVSQIFHSPDLAIRDTFVNASRTLYSSSPRVLSNNSDANLELINTWVAKNTNNKISRLLDSLPSDTRLVLLNAIYLSAKWKTTFDPKKTRMEPFHFKNSVIKVPMMNSKKYPVAHFIDQTLKAKVGQLQLSHNLSLVILVPQNLKHRLEDMEQALSPSVFKAIMEKLEMSKFQPTLLTLPRIKVTTSQDMLSIMEKLEFFDFSYDLNLCGLTEDPDLQVSAMQHQTVLELTETGVEAAAASAISVARTLLVFEVQQPFLFVLWDQQHKFPVFMGRVYDPRA
effect of C1-inhibitor on complement activation by PF4/heparin ([1]; 10 and 20 IU/mL, healthy donor plasma pre-incubated before PF4/heparin): complement activation was reduced
